The values below come from ChEMBL document CHEMBL2074057, “Active secretion of drugs from the small intestinal epithelium in rats by P-glycoprotein functioning as an absorption barrier” (J Pharm Pharmacol, 1996).

The target in data set [1] is T1, ATP-dependent translocase ABCB1 (Homo sapiens, UniProt P08183). Description: TP_TRANSPORTER: uptake in K562 and K562/ADR cell. Format: functional, cell-based.
For data set [2], the target named is T1, ATP-dependent translocase ABCB1. Description: TP_TRANSPORTER: transepithelial transport (basal to apical) in Caco-2 cells. Type of data set: functional, cell-based.

T1 sequence (P08183 whole entry): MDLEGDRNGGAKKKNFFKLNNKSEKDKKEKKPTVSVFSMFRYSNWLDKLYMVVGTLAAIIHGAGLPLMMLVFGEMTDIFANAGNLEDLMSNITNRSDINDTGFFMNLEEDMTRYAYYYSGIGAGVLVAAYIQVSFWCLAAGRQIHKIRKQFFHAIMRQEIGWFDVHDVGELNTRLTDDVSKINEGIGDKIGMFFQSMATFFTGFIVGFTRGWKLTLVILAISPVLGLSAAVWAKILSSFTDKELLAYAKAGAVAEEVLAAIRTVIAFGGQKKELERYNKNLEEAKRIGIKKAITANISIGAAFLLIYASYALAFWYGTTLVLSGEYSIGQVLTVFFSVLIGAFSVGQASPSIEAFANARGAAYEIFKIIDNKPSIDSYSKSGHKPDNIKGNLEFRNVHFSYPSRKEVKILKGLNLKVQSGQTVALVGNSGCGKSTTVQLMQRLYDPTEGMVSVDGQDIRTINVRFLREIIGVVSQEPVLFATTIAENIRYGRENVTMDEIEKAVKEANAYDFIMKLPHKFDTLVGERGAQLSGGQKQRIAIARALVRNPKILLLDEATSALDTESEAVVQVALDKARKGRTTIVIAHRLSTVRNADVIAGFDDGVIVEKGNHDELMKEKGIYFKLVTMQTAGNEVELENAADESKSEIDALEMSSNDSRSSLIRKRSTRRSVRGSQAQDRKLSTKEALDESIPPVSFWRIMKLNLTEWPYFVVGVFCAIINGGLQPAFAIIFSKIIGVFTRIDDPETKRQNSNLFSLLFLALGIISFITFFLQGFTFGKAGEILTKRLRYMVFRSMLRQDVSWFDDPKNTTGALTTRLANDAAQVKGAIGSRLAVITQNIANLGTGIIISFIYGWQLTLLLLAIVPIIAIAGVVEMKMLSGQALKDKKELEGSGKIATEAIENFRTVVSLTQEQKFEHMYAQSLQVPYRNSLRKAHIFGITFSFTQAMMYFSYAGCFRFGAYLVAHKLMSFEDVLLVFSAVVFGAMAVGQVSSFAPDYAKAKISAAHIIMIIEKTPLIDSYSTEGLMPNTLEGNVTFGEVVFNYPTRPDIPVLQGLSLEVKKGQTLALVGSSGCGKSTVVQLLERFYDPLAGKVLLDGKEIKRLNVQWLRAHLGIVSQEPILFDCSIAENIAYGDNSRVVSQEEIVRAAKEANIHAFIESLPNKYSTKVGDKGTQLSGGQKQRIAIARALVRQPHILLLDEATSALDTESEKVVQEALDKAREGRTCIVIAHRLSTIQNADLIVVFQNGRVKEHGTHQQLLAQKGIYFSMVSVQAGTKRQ

For the compound `CC(C)(C)NCC(O)COc1cccc2c1CC(O)C(O)C2` (stereo not given) [NADOLOL], in data set [1], the Activity entry was “substrate [+]”.

Turning to `CCCC(=O)Nc1ccc(OCC(O)CNC(C)C)c(C(C)=O)c1` (stereo not given) [ACEBUTOLOL], the Activity entry in data set [1] and in data set [2] was “substrate [+]” throughout.

In the case of `CCN(CC)C(=O)Nc1ccc(OCC(O)CNC(C)(C)C)c(C(C)=O)c1` (stereo not given) [CELIPROLOL], in data set [1], the Activity result was “substrate [+]”.

In the case of `CC(C)(C)NC[C@H](O)COc1nsnc1N1CCOCC1` [TIMOLOL], the Activity result in data set [1] was “substrate [+]”.
